# Source: article PMC7914897, “Cytotoxic Potential of a-Azepano- and 3-Amino-3,4-SeCo-Triterpenoids” (International Journal of Molecular Sciences, 2021)
# Columns and labels:
# [1] = system: A498 (Renal cancer); experiment: NCI-60 screen (SRB, 48 h); settings: Homo sapiens
# [2] = system: K-562 (Leukemia); experiment: NCI-60 screen (SRB, 48 h); settings: Homo sapiens
# [3] = system: Melanoma subpanel; experiment: NCI-60 screen, subpanel; settings: Homo sapiens
# [4] = system: CNS cancer subpanel; experiment: NCI-60 screen, subpanel; settings: Homo sapiens
# [5] = system: FaDu (hypopharyngeal carcinoma); experiment: SRB cytotoxicity assay, 72 h; format: cell-based, human; settings: Homo sapiens, cut-off 30 µM, read-out: EC50
# Description: (§1) The cytotoxicity of compounds 1–20 was evaluated by means of a colorimetric sulforhodamine B (SRB) assay. For all compounds, the EC50 values were determined for the human tumor cell lines A375 (malignant melanoma), HT29 (colorectal carcinoma), MCF-7 (breast carcinoma), A2780 (ovarian carcinoma), FaDu (hypopharyngeal carcinoma), and NIH 3T3 (non-malignant mouse fibroblasts).
# (§2) In short, exponentially growing cells were seeded into 96-well plates on day 0 at the appropriate cell densities to prevent confluence of the cells during the period of experiment. After 24 h, the cells were treated with serial dilutions of the compounds (0–30 µM) for 72 h. The final concentration of DMSO never exceeded 0.5%, which was non-toxic to the cells. After a 72 h treatment, the supernatant medium from the 96-well plates was discarded, and the cells were fixed with 10% TCA. For a thorough fixation, the plates were allowed to rest at 4 °C. After fixation, the cells were washed in a strip washer. The washing was done four times with water using alternate dispensing and aspiration procedures. The plates were then dyed with 100 µL of 0.4% SRB for about 20 min. After dying, the plates were washed with 1% acetic acid to remove the excess of the dye and allowed to air-dry overnight. Tris base solution (200 µL, 10 mM) was added to each well and absorbance was measured at λ = 570 nm (using a 96 well plate reader, Tecan Spectra, Crailsheim, Germany). The percentages of surviving cells relative to untreated controls were determined.
# [6] = system: MCF-7 (breast carcinoma); experiment: SRB cytotoxicity assay, 72 h; format: cell-based, human; settings: Homo sapiens, MCF7; MCF-7, 72 h, cut-off 30 µM; read-out: EC50
# Description: as §1, §2
# [7] = system: HT29 (colorectal carcinoma); experiment: SRB cytotoxicity assay, 72 h; format: cell-based, human; settings: Homo sapiens, HT-29; HT29, 72 h, cut-off 30 µM; read-out: EC50
# Description: as §1, §2
# [8] = system: A375 (malignant melanoma); experiment: SRB cytotoxicity assay, 72 h; format: cell-based, human; settings: Homo sapiens, A-375, 72 h, A375, 72 h, cut-off 30 µM; read-out: EC50
# Description: as §1, §2
# [9] = system: A2780 (ovarian carcinoma); experiment: SRB cytotoxicity assay, 72 h; format: cell-based, human; settings: Homo sapiens; A2780, 72 h, cut-off 30 µM; read-out: EC50
# Description: as §1, §2
# [10] = system: SF-295 (CNS cancer); experiment: NCI-60 screen (SRB, 48 h); settings: Homo sapiens
# [11] = system: HT29 (Colon cancer); experiment: NCI-60 screen (SRB, 48 h); settings: Homo sapiens
# [12] = system: CCRF-CEM (Leukemia); experiment: NCI-60 screen (SRB, 48 h); settings: Homo sapiens
# [13] = system: BT-549 (Breast cancer); experiment: NCI-60 screen (SRB, 48 h); format: cell-based; settings: Homo sapiens
# [14] = system: NIH 3T3 (non-malignant mouse fibroblasts); experiment: SRB cytotoxicity assay, 72 h; format: cell-based; settings: Mus musculus, NIH3T3; NIH 3T3, 72 h, cut-off 30 µM; read-out: EC50
# Description: as §1, §2
# [15] = system: MALME-3M (Melanoma); experiment: NCI-60 screen (SRB, 48 h); settings: Homo sapiens
# [16] = system: NSC lung cancer subpanel; experiment: NCI-60 screen, subpanel; settings: Homo sapiens
# [17] = system: SN12C (Renal cancer); experiment: NCI-60 screen (SRB, 48 h); settings: Homo sapiens
# [18] = system: HCT-116 (Colon cancer); experiment: NCI-60 screen (SRB, 48 h); settings: Homo sapiens
# [19] = system: MDA-MB-435 (Melanoma); experiment: NCI-60 screen (SRB, 48 h); format: cell-based
# [20] = system: UO-31 (Renal cancer); experiment: NCI-60 screen (SRB, 48 h)
# [21] = system: SF-539 (CNS cancer); experiment: NCI-60 screen (SRB, 48 h); settings: Homo sapiens
# [22] = system: KM12 (Colon cancer); experiment: NCI-60 screen (SRB, 48 h); settings: Homo sapiens
# [23] = system: MCF7 (Breast cancer); experiment: NCI-60 screen (SRB, 48 h); settings: Homo sapiens
# [24] = system: Prostate cancer subpanel; experiment: NCI-60 screen, subpanel; settings: Homo sapiens
# [25] = system: SK-MEL-2 (Melanoma); experiment: NCI-60 screen (SRB, 48 h); settings: Homo sapiens
smiles,measurement,setting,value
"CC1(C)NCCC[C@]2(C)[C@H]3C=CC4=C5C[C@@](C)(CO)CC[C@]5(C)CC[C@@]4(C)[C@]3(C)CC[C@@H]12 [Compound 6, azepano-glycyrrhetol-diene]",GI50,[1]; A498,11.4 µM
same,IC (TGI),"[1]; A498, 48 h, read-out: TGI",24.5 µM
same,CC50,"[1]; A498, read-out: LC50",52.7 µM
same,GI50,[2]; K562,3.18 µM
same,IC (TGI),"[2]; K562, 48 h, read-out: TGI",10.8 µM
same,CC50,"[2]; K562, read-out: LC50",43.8 µM
same,IC (TGI),"[3]; 48 h, read-out: TGI MG_MID",11.9 µM
same,GI50,[3]; read-out: GI50 MG_MID,3.61 µM
same,CC50,[3]; read-out: LC50 MG_MID,36 µM
same,IC (TGI),"[4]; 48 h, read-out: TGI MG_MID",13.5 µM
same,GI50,[4]; read-out: GI50 MG_MID,4.53 µM
same,CC50,[4]; read-out: LC50 MG_MID,39.7 µM
same,EC50,[5],4.44 ± 0.6 µM
same,EC50,[6],7.1 ± 0.5 µM
same,EC50,[7],4.84 ± 0.5 µM
same,EC50,[8],6.65 ± 0.3 µM
same,EC50,[9],3.93 ± 0.5 µM
same,GI50,[10]; SF-295,2 µM
same,IC (TGI),"[10]; SF-295, 48 h, read-out: TGI",4.04 µM
same,CC50,"[10]; SF-295, read-out: LC50",8.15 µM
same,GI50,[11]; HT-29,3.25 µM
same,IC (TGI),"[11]; HT-29, 48 h, read-out: TGI",13.8 µM
same,CC50,"[11]; HT-29, read-out: LC50",41.8 µM
same,GI50,[12],3.52 µM
same,IC (TGI),"[12]; 48 h, read-out: TGI",14.5 µM
same,CC50,[12]; read-out: LC50,65.3 µM
same,GI50,[13]; BT-549,3.46 µM
same,IC (TGI),"[13]; BT-549, 48 h",12.7 µM
same,CC50,"[13]; BT-549, read-out: LC50 (the source's name)",39 µM
same,EC50,[14],11.7 ± 1.4 µM
same,GI50,[15],2.64 µM
same,IC (TGI),"[15]; 48 h, read-out: TGI",8.01 µM
same,CC50,[15]; read-out: LC50,32.5 µM
same,IC (TGI),"[16]; 48 h, read-out: TGI MG_MID",11.2 µM
same,GI50,[16]; read-out: GI50 MG_MID,3.17 µM
same,CC50,[16]; read-out: LC50 MG_MID,39.1 µM
same,GI50,[17],3.34 µM
same,IC (TGI),"[17]; 48 h, read-out: TGI",12 µM
same,CC50,[17]; read-out: LC50,41.7 µM
same,GI50,[18]; HCT-116,2.73 µM
same,IC (TGI),"[18]; HCT-116, 48 h, read-out: TGI",10.6 µM
same,CC50,"[18]; HCT-116, read-out: LC50",52.9 µM
same,GI50,"[19]; Homo sapiens, MDA-MB-435",3.76 µM
same,IC (TGI),"[19]; Homo sapiens, MDA-MB-435, 48 h, read-out: TGI",14 µM
same,CC50,"[19]; Homo sapiens, MDA-MB-435, read-out: LC50 (the source's name)",43 µM
same,Growth % of the Most Sensitive Cell Lines,"[19]; MDA-MB-435, 1 dose 10 µM",−95.56%
same,GI50,"[20]; Homo sapiens, UO-31",3.59 µM
same,IC (TGI),"[20]; Homo sapiens, UO-31, 48 h, read-out: TGI",15.7 µM
same,CC50,"[20]; Homo sapiens, UO-31, read-out: LC50",42.1 µM
same,Growth % of the Most Sensitive Cell Lines,"[20]; UO-31, 1 dose 10 µM",−98.13%
same,GI50,[21]; SF-539,2.69 µM
same,IC (TGI),"[21]; SF-539, 48 h, read-out: TGI",9.26 µM
same,CC50,"[21]; SF-539, read-out: LC50",33 µM
same,GI50,[22]; KM12,6.09 µM
same,IC (TGI),"[22]; KM12, 48 h, read-out: TGI",20.3 µM
same,CC50,"[22]; KM12, read-out: LC50",55.1 µM
same,GI50,[23]; MCF7,3.14 µM
same,IC (TGI),"[23]; MCF7, 48 h, read-out: TGI",14.5 µM
same,CC50,"[23]; MCF7, read-out: LC50",46.7 µM
same,IC (TGI),"[24]; 48 h, read-out: TGI MG_MID",8.66 µM
same,GI50,[24]; read-out: GI50 MG_MID,2.65 µM
same,CC50,[24]; read-out: LC50 MG_MID,26.2 µM
same,GI50,[25]; SK-MEL-2,3.31 µM
same,IC (TGI),"[25]; SK-MEL-2, 48 h, read-out: TGI",12.2 µM
same,CC50,"[25]; SK-MEL-2, read-out: LC50",38.9 µM
